Here are results for nine molecules from PMC9201508, “Mechanism of CK2 Inhibition by a Ruthenium-Based Polyoxometalate” (Frontiers in Molecular Biosciences, 2022).

In data set [1] the target is T1, full-length CK2α (FL-CK2α) (Homo sapiens, UniProt P68400).
T1 construct: made in house
As to the kind of experiment: Radioactive kinase assay, CK2-tide substrate, full-length CK2α. The class given is biochemical. The settings on record: CK2-tide substrate 0.1 mM, 20 μM ATP, pH 7.5; mean ± SEM. The procedure: (§1) For IC50 (concentrations inducing 50% inhibition) analysis, recombinant tetrameric CK2 (α2β2), or C-terminal-deleted CK2α (CK2α^1–336), or full length CK2α (7.5 ng) were incubated with 0.1 mM synthetic peptide substrate RRRADDSDDDDD (CK2-tide), in a phosphorylation buffer containing 50 mM Tris-HCl pH 7.5, 10 mM MgCl2, 20 μM [γ-^33P]ATP (1,000–2,000 cpm/pmol), in a final volume of 20 μl, with increasing concentrations of the inhibitor. In the case of tetrameric CK2, 0.1 M NaCl was also present in the phosphorylation mixture. Controls were performed in the absence of any inhibitor, but with equal volume of vehicle (H2O). Reactions were performed at 30°C for 12 min and stopped by sample absorption on phospho-cellulose papers. Papers were washed three times with 75 mM phosphoric acid and counted in a scintillation counter (PerkinElmer). In the case of casein substrate (used at 0.05 mg/ml concentration), reactions were stopped by the addition of Laemmli loading buffer, samples were analyzed by 11% SDS-PAGE, and radioactive bands were detected and quantified by digital autoradiography (Cyclone plus storage phosphor system, PerkinElmer). IC50 calculation was obtained by analysis of the results with GraphPad Prism 7.0a software.

Details of data set [2]: method as in Prudent et al., 2008. The conditions noted are these: ref Prudent et al., 2008; cited from earlier work.
For data set [3], the system named is endogenous CK2 in HEK-293T cells. As to the kind of experiment: Endo-cellular CK2 activity assay (Akt1 phospho-Ser129 Western blot). The class given is cell-based, human. The procedure: HEK-293T cells (human embryo kidney fibroblasts) were cultured in an atmosphere containing 5% CO2, maintained in DMEM medium (Sigma), supplemented with 10% (v/v) fetal bovine serum (FBS), 2 mM L-glutamine, 100 U/ml penicillin, and […] streptomycin. Cell treatments with Ru4POM were performed in the culture medium. When used, the cationic transfection reagents PEI (Thermo Scientific) or JetOpitmus (Polyplus-transfection) were mixed with Ru4POM and incubated for 1 h at room temperature, before adding the mix to the cells. After 24 h cells were lysed as previously described ([Zanin et al., 2012]). Protein concentration was determined by the Bradford method.
Endo-cellular CK2 activity was evaluated by assessing the phosphorylation state of the CK2 substrate Akt phospho-Ser129 (Abcam) ([Ruzzene et al., 2010]). For this purpose, equal amounts of proteins from treated cells were loaded on 11% SDS-PAGE, blotted on Immobilon-P membranes (Millipore), processed in Western blot (WB), and detected by chemiluminescence.
Quantitation of the signal was obtained by chemiluminescence detection on ImageQuant LAS 500 (GE Healthcare Life Sciences) and analysis with Carestream Molecular Imaging software (Carestream).

Data set [4] has as its target T2, C-terminal-deleted CK2α (CK2α 1-336) (Homo sapiens, UniProt P68400).
T2 construct: Human CK2α (residues 1-336) was produced as previously reported; made in house; host or cells: E. coli BL21-DE3
T2 sequence (P68400 1-336): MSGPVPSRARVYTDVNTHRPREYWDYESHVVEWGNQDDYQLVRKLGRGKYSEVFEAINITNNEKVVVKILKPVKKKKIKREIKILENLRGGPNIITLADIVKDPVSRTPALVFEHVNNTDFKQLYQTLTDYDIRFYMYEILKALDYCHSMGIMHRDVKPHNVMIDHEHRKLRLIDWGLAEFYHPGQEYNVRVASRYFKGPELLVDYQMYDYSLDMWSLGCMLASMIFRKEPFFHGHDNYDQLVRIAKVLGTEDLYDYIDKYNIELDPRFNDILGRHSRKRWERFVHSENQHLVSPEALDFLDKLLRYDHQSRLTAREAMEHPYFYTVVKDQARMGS
As to the kind of experiment: Radioactive kinase assay, CK2-tide substrate, C-terminal truncated CK2α. The class given is biochemical. The conditions noted are these: CK2-tide substrate 0.1 mM, 20 μM ATP, pH 7.5, mean ± SEM. The procedure:
(§2) Recombinant full-length CK2α and tetrameric CK2 (α2β2) [produced as in ([Venerando et al., 2013])] were kindly provided by Dr. Andrea Venerando (University of Parma, Italy). Human CK2α (residues 1-336) was produced as previously reported ([Papinutto et al., 2012]). Briefly, after expression in E. coli BL21-DE3, the protein was purified by two chromatographic steps, with heparin affinity chromatography (5 ml HiTrap Eparin HP column, GE Healthcare) and size-exclusion chromatography (HiLoad 16/60 Superdex 75 pg column, GE Healthcare). Protein eluted in 25 mM Tris, 500 mM NaCl, 1 mM DTT, pH = 8.5 was concentrated to 13.3 mg/ml, flash-frozen in liquid nitrogen and stored at −80°C.
For IC50 (concentrations inducing 50% inhibition) analysis, recombinant tetrameric CK2 (α2β2), or C-terminal-deleted CK2α (CK2α^1–336), or full length CK2α (7.5 ng) were incubated with 0.1 mM synthetic peptide substrate RRRADDSDDDDD (CK2-tide), in a phosphorylation buffer containing 50 mM Tris-HCl pH 7.5, 10 mM MgCl2, 20 μM [γ-^33P]ATP (1,000–2,000 cpm/pmol), in a final volume of 20 μl, with increasing concentrations of the inhibitor. In the case of tetrameric CK2, 0.1 M NaCl was also present in the phosphorylation mixture. Controls were performed in the absence of any inhibitor, but with equal volume of vehicle (H2O). […]

Data set [5] addresses T3, CK2 (Homo sapiens, UniProt P68400).
T3 construct: made in house
T3 sequence (P68400 1-336): T2 sequence (P68400 1-336)
Nature of the data set: Kinetics analysis (Michaelis-Menten) with increasing CK2-tide or casein. The class given is biochemical. The procedure: as §1
For kinetics analysis, the assays were performed with increasing concentrations of CK2-tide or casein, in the phosphorylation buffer described above, but with 100 μM ATP concentration.

In data set [6] the target is T3, CK2. As to the kind of experiment: Radioactive kinase assay with casein as substrate. The class given is biochemical. The settings on record: casein 0.05 mg/ml replaced CK2-tide. The protocol: as §1
A further data set deals with T4, recombinant CK2α.
T4 construct: made in house
Nature of the data set: Radioactive phosphorylation assay at different pH and NaCl concentration. The class given is biochemical. The settings on record: 5 nM Ru4POM. The procedure: as §1, with “[…],” for “in a phosphorylation buffer containing 50 mM Tris-HCl pH 7.5,”, “In the case of tetrameric CK2, 0.1 M NaCl was also present in the phosphorylation mixture.” left out

Data set [7] can be described thus: Stability monitored by UV-vis in buffered aqueous environment. The class given is physicochemical. The conditions noted are these: buffered/saline aqueous environments, up to pH 8.5, over 24 h. The protocol: Na10[Ru4(H2O)4(μ-O)4(μ-OH)2(γ-SiW10O36)2], Ru4POM, was prepared following a published procedure ([Galiano et al., 2021]). Ru4POM identity was confirmed by FTIR, while its stability was monitored by UV-vis, by using a Cary 100 instrument (Varian), in buffered aqueous environment (25 mM Tris, pH 8.5) over 24 h (Supplementary Figure S6).
Suppl. Fig. 6. UV-vis spectrophotometric monitoring of Ru4POM (5µM) stability in 25 mM Tris and
500 mM NaCl (pH=8.5) over time (up to 24 h). A quartz cuvette with path length 1 cm was used.
(1 picture or pasted object on this page, not shown here)

The target of a further data set is T5, CK2α (Homo sapiens, UniProt P68400).
T5 construct: Human CK2α (residues 1-336) was produced as previously reported; made in house; host or cells: E. coli BL21-DE3
T5 sequence (P68400 1-336): T2 sequence (P68400 1-336)
Nature of the data set: Isothermal titration calorimetry. The class given is binding. The settings on record: 25 mM Tris, 500 mM NaCl. The procedure: as §2
Isothermal titration calorimetry (ITC) experiments were performed using a Malvern PEAQ-ITC microcalorimeter, at 25°C, with a 270 μl sample cell and a computer controlled microsyringe for titrant injections. CK2α (20–30 μM) and Ru4POM (200–400 μM) samples were in 25 mM Tris, 500 mM NaCl, pH = 8.5. After baseline stabilization, a further delay of 60 s was used before the first injection. In each individual titration, a starting Ru4POM injection of 0.4 μl in 0.8 s was followed by other 12 injections of 3 μl with a duration of 6 s each. A delay of 150 s was applied between each Ru4POM injection. Wiseman plot of integrated data was automatically obtained by software analysis (excluding the heat referred to the first 0.4 μl injection) and then it was fitted by theoretical binding curve using the one site model.
(ITC needs no label: the signal is the heat of the interaction.)

The target in a further data set is T6, tetrameric CK2 (α2β2) (Homo sapiens, UniProt P68400).
T6 construct: made in house
T6 sequence (P68400 whole entry): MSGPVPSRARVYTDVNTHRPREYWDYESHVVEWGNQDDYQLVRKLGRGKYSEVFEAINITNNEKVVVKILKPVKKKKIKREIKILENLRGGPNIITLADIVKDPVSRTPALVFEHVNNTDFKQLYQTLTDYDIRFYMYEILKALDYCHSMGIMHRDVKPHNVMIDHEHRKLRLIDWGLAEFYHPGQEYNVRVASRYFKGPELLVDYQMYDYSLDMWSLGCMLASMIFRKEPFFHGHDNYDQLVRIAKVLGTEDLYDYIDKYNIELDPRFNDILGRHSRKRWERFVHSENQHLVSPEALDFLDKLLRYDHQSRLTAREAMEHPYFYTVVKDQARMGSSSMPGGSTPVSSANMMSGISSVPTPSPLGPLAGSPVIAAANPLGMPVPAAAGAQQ
T6 sequence (P67870 2-215 partner limits assumed): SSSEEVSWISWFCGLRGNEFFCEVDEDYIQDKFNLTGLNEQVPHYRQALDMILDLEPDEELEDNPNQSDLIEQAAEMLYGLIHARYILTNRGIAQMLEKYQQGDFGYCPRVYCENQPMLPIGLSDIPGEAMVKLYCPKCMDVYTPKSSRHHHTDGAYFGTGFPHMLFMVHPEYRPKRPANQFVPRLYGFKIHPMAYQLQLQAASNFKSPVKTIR
As to the kind of experiment: Radioactive kinase assay, CK2-tide substrate, tetrameric holoenzyme. The conditions noted are these: 0.1 M NaCl present, mean ± SEM. The class given is biochemical. The procedure:
as §1

For data set [8], the target named is T3, CK2. The settings on record: number of kinases; ref Battistutta et al., 2011; cited from earlier work.

“Also recorded” adds a separate entry of the source.

T1 sequence (P68400 whole entry): as the sequence (P68400 whole entry) above

As a reminder, the IC50 is the point on the concentration scale where inhibition reaches its midpoint. For the molecule “(^ n Bu4N)3H[γ-SiW10O36{(C5H7N2OS)(CH2)4CONH(CH2)3Si}2O] [TBA Biotin-SiW10]”, in data set [1], the IC50 was found to be 5.3 ± 0.6 nM.
With [P2Mo18O62]^6−, in [2], the “chemical stability in an aqueous environment” value was “low chemical stability”.
As to “(S,S)-(^ n Bu4N)4[γ-SiW10O36{(C16H9)SO2NH(CH2)3Si}2O] [TBA (L)Trp-SiW10]”, in data set [1], the IC50 amounted to 8.5 ± 0.4 nM.
As to (NH4)12[Mo36(NO)4O108(H2O)16] [Mo36POM], the IC50 in [1] was greater than 1000 nM.
Still for that read-out and setting: as for “[γ-SiW10O36{(C16H9)SO2NH(CH2)3Si}2O]^4− [Na (L)Trp-SiW10]”, the figure is 18.2 ± 1.9 nM; as for “[γ-SiW10O36{(C16H9)SO2NH(CH2)3Si}2O]^4− [Na (D)Trp-SiW10]”, 12.8 ± 1.7 nM; as for “[γ-SiW10O36{(C5H7N2OS)(CH2)4CONH(CH2)3Si}2O]^4− [Na Biotin-SiW10]”, 16.4 ± 1.3 nM.
Take “Na10[Ru4(H2O)4(μ-O)4(μ-OH)2(γ-SiW10O36)2] [Ru4POM]”: the “CK2 inhibition in intact cells” value in [3] (HEK-293T cells treated with the free compound) is listed as “do not detect any CK2 inhibition”. Besides, the “Akt1 phospho-Ser129 phosphorylation” value in data set [3] (HEK-293T, 10 μM Ru4POM, 24 h, combined with PEI or JetOptimus) is on record as “reduced the phosphorylation of this site”. The cell permeability entry in data set [3] (inferred from lack of CK2 inhibition in treated cells) is given as “too small cell permeability”. For the same molecule, the IC50 in data set [4] was 3.63 ± 0.09 nM; in data set [1], 3.63 ± 0.17 nM; at CK2 [6], 18.5 ± 1.04 nM; on tetrameric CK2 (α2β2), 5.57 ± 0.68 nM. The “mode of inhibition towards substrates” value at CK2 [5] (CK2-tide peptide and casein) is “competitive inhibition”. For the same molecule, the “CK2-TIDE Vmax” value at CK2 [5] (in presence of 5 nM Ru4POM, 100 μM ATP, ± SEM) amounted to 15019 ± 1635 cpm. The “CASEIN Vmax” value at CK2 [5] (in presence of 18 nM Ru4POM, 100 μM ATP, ± SEM) is recorded as 75417 ± 20117 a.u. Moreover, the “inhibition of CK2 activity” value in the data set on recombinant CK2α (NaCl 0.2 M, CK2-tide) worked out at 29%; in the data set with recombinant CK2α (NaCl 0.5 M, CK2-tide), 22%; in the data set with recombinant CK2α (pH 7.5, without NaCl, CK2-tide), 75%; in the data set on recombinant CK2α (pH 8.5, CK2-tide), 66%. In [7], the “stability in aqueous environment” value is recorded as “stability was confirmed; also recorded: stable”. The same molecule registered a stoichiometry on CK2α (pH 8.5) of 1.04 ± 0.02. Moreover, the ΔG at CK2α (pH 8.5) was -7.763 ± 0.11 kcal/mol. The molecule further had a ΔH at CK2α (pH 8.5) of -7.885 ± 0.339 kcal/mol. Also, at CK2α (pH 8.5), the “−TΔS” value came to 0.12 ± 0.581 kcal/mol. The Kd at CK2α (pH 8.5, 25°C, one site model, two experiments, read-out: apparent mean KD) worked out at 2090 ± 360 nM.
In the case of `O=C(O)c1ccc2c(c1)nc(Nc1cccc(Cl)c1)c1ccncc12` [CX-4945, silmitasertib], the “other kinases inhibited with nanomolar activity” value at CK2 [8] is 12.
